Values quoted from earlier work as cited in patent US20240285773A1, “METHODS OF TREATING MYELODYSPLASTIC SYNDROME AND MONITORING THE TREATMENT” (Geron Corporation, priority 2023, published 2024).

System: patients with del(5q) MDS
Settings: cited from earlier work

In the case of `Nc1cccc2c1CN(C1CCC(=O)NC1=O)C2=O` (stereo not shown) [lenalidomide, 3-(4-Amino-1-oxoisoindolin-2-yl)piperidine-2,6-dione], the “Transfusion independence, proportion of patients” value is given as “two-thirds”.
